Data taken from patent US8133917B2, “Pterostilbene as an agonist for the peroxisome proliferator-activated receptor alpha isoform” (The United States of America as represented by the …, priority 2004, dated 2012).

Columns and labels:
PPARα = biological target: T1, PPARα (Rattus norvegicus, UniProt P37230); assay: Activation of PPARα in H4IIEC3 cells transfected with PPRE-AB-luciferase reporter gene; assay type: cell-based
T1 construct: endogenous in cells; host or cells: H4IIEC3 rat hepatoma cells
T1 sequence (P37230 1-468): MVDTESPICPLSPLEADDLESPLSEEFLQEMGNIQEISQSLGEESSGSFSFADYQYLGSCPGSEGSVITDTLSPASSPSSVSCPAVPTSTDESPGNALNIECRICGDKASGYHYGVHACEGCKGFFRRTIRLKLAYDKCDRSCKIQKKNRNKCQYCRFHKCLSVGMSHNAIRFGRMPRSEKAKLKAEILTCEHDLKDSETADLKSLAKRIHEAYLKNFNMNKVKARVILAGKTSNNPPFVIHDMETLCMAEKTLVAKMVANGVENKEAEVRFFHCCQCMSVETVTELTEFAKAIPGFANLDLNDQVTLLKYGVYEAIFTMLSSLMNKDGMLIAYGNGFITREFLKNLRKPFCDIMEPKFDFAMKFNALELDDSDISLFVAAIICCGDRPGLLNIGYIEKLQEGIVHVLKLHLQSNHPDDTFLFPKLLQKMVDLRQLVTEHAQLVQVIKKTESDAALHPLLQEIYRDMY

[1] = Hamster feeding study: plasma lipoprotein cholesterol, glucose, weights; assay type: in vivo, golden Syrian hamsters; conditions: hamsters; for plasma LDL cholesterol lower compared to control group / total plasma cholesterol lower compared to control group: 25 mg/kg diet
Procedure: Male golden Syrian hamsters (Charles River, Wilmington, Mass.), initial weight ranging from 34-41 g, were fed a powdered stock diet (Rodent Lab Chow 5001, Purina Mills, St. Louis, Mo.) for 7 days. The animals were placed in individual wire-bottom cages in a room kept at 20-22° C., 60% rh and 12 h light and dark cycle. Following the initial 7 day period, 8-10 animals were randomly assigned from a weight sorted list to each of five test diets (α-cellulose control and test substance). Food intake was measured twice each week and body weights were monitored once a week. After 21 days on the treatment diets, the animals were killed, blood was collected and analyzed for total cholesterol by the cholesterol oxidase method and lipoprotein cholesterol, by size exclusion chromatography, as previously described (German et al. 1996. Nutrition Res. 16: 1239-1249). All animal procedures were approved by the Animal Care and Use Committee, Western Regional Research Center, USDA, Albany, Calif. and conformed to the principles in “Guide for the Care and Use of Laboratory Animals” (Committee on Care and Use of Laboratory Animals 1985). Plasma blood glucose was determined using a blood glucose meter (Fast Glucose Meter-Precision Xtra, MediSense, Bedford, Mass., USA). Diets were prepared by dissolving powdered cholesterol into warmed butterfat, followed by the addition of corn and fish oil. The small amounts of test ingredients were dissolved in about 50 ml of ethanol and added to the stirring dry ingredients. The liquid fat was also added to the dry ingredients while stirring. Differences between treatments were tested by two-tailed t-test assuming equal variance, and were considered significant at p<0.05.

H4IIEC3 cells = assay: Toxicity to H4IIEC3 cells during the reporter assay; assay type: cell-based, rat; conditions: 100 and 300 μM
[2] = Hamster feeding study: plasma lipoprotein cholesterol, glucose, weights; assay type: in vivo, golden Syrian hamsters; conditions: hamsters; plant materials at about 10% of total diet; data not shown

SMILES | PPARα activation (luciferase activity) (PPARα; 100 μM, H4IIEC3 cells) [relative luciferase units] | maximal luciferase response compared to control (PPARα; 100 μM, H4IIEC3 cells, 30 hr, n=4) | agonist / activator of PPARα (PPARα; H4IIEC3 cells) | plasma LDL cholesterol lower compared to control group [1] [%] | total plasma cholesterol lower compared to control group [1] [%] | Final Weights: Body wt (AVG) ([1]; 25 ppm in diet, 21 days) [g] | Final Weights: Liver wt (AVG) ([1]; 25 ppm in diet, 21 days) [g] | LDL/HDL (AVG) ([1]; 25 ppm in diet, 21 days) | Liver/Body (AVG) ([1]; 25 ppm in diet, 21 days) | Plasma Lipoprotein Cholesterol HDL (AVG) ([1]; 25 ppm in diet, 21 days) [mg/dL] | Plasma Lipoprotein Cholesterol LDL (AVG) ([1]; 25 ppm in diet, 21 days) [mg/dL] | Plasma Lipoprotein Cholesterol Total (AVG) ([1]; 25 ppm in diet, 21 days) [mg/dL] | Plasma Lipoprotein Cholesterol VLDL (AVG) ([1]; 25 ppm in diet, 21 days) [mg/dL] | Plasma glucose (AVG) ([1]; 25 ppm in diet, 21 days) | induction of luciferase activity (PPARα; all the concentrations tested (1, 10, 100, 300 μM)) | toxicity to H4IIEC3 cells (H4IIEC3 cells) | lowering of plasma cholesterol levels versus freeze-dried tomato and eggplant materials [2]
CC(C)(Oc1ccc(C2CC2(Cl)Cl)cc1)C(=O)O (stereo not drawn) [ciprofibrate] | 19460±1466 | about 5 fold | acts as an agonist of PPARα |  |  |  |  |  |  |  |  |  |  |  |  |  | 
COc1cc(/C=C/c2ccc(O)cc2)cc(OC)c1 [pterostilbene] |  |  |  | 29 | 18 | 110.5 | 7.9 | 1.8 | 7.1 | 137.0 | 228.1 | 447.8 | 82.7 | 185.1 |  |  | 
COc1ccc(C=Cc2cc(OC)cc(OC)c2)cc1 [resveratrol trimethylether] |  |  |  |  |  |  |  |  |  |  |  |  |  |  | only slightly |  | 
Oc1ccc(C=Cc2cc(O)cc(O)c2)cc1 [resveratrol] |  |  |  | 20 | 14 | 109.5 | 7.6 | 2.2 |  | 127.1 | 257.4 | 468.2 | 83.6 | 191 |  | toxic | more effective than the plant materials
